Source: publication PMC4327855 (Science signaling, 2014)

Molecular target: T1, TPC1 (Strongylocentrotus purpuratus, UniProt D1J6X7)
T1 sequence (D1J6X7 1-881): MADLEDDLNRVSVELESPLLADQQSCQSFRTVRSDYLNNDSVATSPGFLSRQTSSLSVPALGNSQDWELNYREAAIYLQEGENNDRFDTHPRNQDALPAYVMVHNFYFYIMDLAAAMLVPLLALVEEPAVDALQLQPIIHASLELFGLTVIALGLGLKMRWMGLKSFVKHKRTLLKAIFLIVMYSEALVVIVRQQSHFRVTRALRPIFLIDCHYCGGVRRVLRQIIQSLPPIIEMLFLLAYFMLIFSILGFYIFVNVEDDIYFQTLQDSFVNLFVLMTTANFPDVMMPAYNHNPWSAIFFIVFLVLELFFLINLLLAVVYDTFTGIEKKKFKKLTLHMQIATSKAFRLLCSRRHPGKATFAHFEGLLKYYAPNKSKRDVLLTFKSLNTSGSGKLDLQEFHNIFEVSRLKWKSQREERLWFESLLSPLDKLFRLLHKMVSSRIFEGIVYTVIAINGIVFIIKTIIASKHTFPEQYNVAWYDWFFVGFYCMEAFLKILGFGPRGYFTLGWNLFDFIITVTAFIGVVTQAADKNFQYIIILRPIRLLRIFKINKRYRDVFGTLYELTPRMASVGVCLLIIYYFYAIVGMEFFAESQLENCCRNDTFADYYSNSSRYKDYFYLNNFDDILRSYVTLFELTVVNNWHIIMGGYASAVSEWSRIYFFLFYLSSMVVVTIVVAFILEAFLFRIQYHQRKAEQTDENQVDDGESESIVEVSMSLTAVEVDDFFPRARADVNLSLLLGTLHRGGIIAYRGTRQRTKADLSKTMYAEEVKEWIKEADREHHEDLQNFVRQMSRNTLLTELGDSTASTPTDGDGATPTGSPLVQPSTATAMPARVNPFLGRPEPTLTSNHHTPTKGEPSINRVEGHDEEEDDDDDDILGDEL
Test: inhibition of NAADP-evoked Ca2+ signals
Type: cell-based

COC(=O)C1=C(C)NC(C)=C(C(=O)OC)C1c1ccccc1[N+](=O)[O-] [nifedipine]
IC50: 4 µM
